US9296688B2, “Carbohydrate-selective receptors” (New York University, priority 2012, dated 2016)
Where “and” joins values, the source holds several entries; their conditions need not be identical. Equal values may be shown once. Read-outs that look alike come from different tables or passages of the source.

How the values were obtained:
[1] = Method: Note that all equilibria present in a receptor/pyranoside mixture contribute toward the calculated BC50 value, and a higher 1/BC50 value is indicative of a higher overall binding strength.
As each 1/BC50 plot is a measure of affinity between 1 and pyranosides, comparing the plots of two or more pyranosides provides a means of assessing selectivity.
The BC50^0 values of the pyranosides for receptor 1 were determined using Eq. 17.

[2] = CDCl3, 25° C., extrapolated from a Van't Hoff plot
[3] = 1/BC50 plot, pyranoside 0 to 10.0 mM
Remark: listed apart in the source
[4] = not given; remark: listed apart in the source
[5] = 1:2 binding (K2), CDCl3, Van't Hoff

c1c[nH]c(CNCc2cc(CNCc3ccc[nH]3)cc(-c3cc(CNCc4ccc[nH]4)cc(CNCc4ccc[nH]4)c3)c2)c1 [Compound 1, N,N′,N′N″N′″-([1,1′-biphenyl]-3,3′,5,5′-tetrayltetrakis(methylene))tetrakis (1-(1H-pyrrol-2-yl)methanamine)]
binding order ([1]; higher pyranoside concentrations (>1.0 mM)): α-Man>β-Man>β-Glc | binding order ([1]; pyranoside from 0.3 mM to 1.0 mM): α-Man>β-Glc>β-Man | K3 (2:1 receptor:pyranoside binding) [2]: 3 M⁻¹ | concentration of α-Man where the maximum 1/BC50 value (maximum selectivity) is obtained [3]: 0.8 mM | ΔH° [5]: -20.2 ± 1.2 kcal/mol | ΔS° [5]: −52±4 e.u. | interaction parameter α for K3 (K3 / reference Ka) (2:1 binding, 25° C.): at least 2.7 | approximate baseline (reference) Ka, 1:1 binding of 1 to the β-face of β-Man (from NMR detection limit, no NOEs on β-face, 0.5 mM 1, 1.0 mM β-Man, 25° C.): ≤ 104 M⁻¹ | Kdimer ([4]; CDCl3, 5° C.): 24.2 ± 0.5 M⁻¹ | Kdimer ([4]; CDCl3, 10° C.): 20.8 M⁻¹ | Kdimer ([4]; CDCl3, 15° C.): 16.9 M⁻¹ | Kdimer ([4]; CDCl3, 20° C.): 15.3 M⁻¹ | Kdimer ([4]; CDCl3, 25° C.): 13.0 M⁻¹ and 13.0 ± 0.5 M⁻¹
